Where a SMILES comes first, the peptide text is derived from it. Where no end group is shown, it is not given here. The star is where a group is joined. Myristoyl = CCCCCCCCCCCCCC(=O)*

Holding throughout (assay type): cell-based
Data set [1] can be described thus: Confirmation of induction of cell death (PI staining, live cell ratio). The settings on record: human, liquid-cultured 11 days. How it is done: (§1) (1-2) In order to confirm induction of cell death, cells that were liquid-cultured for 11 days in each experimental system were stained with PI, and the ratio of live cells was calculated based on the measured number of dead cells.
(§2) The live cell ratio {(the number of live cells/(the number of live cells+the number of dead cells)} was calculated for each experimental system (control, positive control, KS-13 (1 μg/mL), and KS-13 (10 μg/mL)), using cells that were liquid-cultured for 11 days as the target cells. The results are shown below.

Data set [2] has as its system human cord blood CD34(+) hematopoietic stem cell population. The description is as above. The settings on record: KS-13 1 and 10 μg/mL, 11 days. On the procedure:
as §1, §2

In data set [3] the test system is mouse fetal liver hematopoietic stem cells (CD45(+)c-Kit(+)Sca-1 (+)). The data set is described as follows: Hematopoietic colony-forming cell assay. The settings on record: for number of colonies: peptide 30 μg/mL, culturing for 12 days, 1,000 cells/dish. On the procedure:
KS-13 (10 μg/mL or 30 μg/mL) was added to a semisolid medium (Methocult M3434 produced by STEMCELL Technologies) containing cell stimulatory factors (50 ng/mL of rm SCF, 10 ng/mL of rm IL-3, 10 ng/mL of rh IL-6, and 3 U/mL of rh EPO) (rm: recombinant form; rh: recombinant human form), and mouse fetal liver hematopoietic stem cells (CD45(+)c-Kit(+)Sca-1 (+)) (1,000 cells/dish) were cultured. Hematopoietic colony-forming cell assay was performed to evaluate the hematopoietic potential of the cells. Further, for comparison, hematopoietic colony-forming cell assay was performed in a similar manner using a KS-13-free liquid medium (none), and the hematopoietic potential of the cells was evaluated.
Myristoylated KS-13 (30 μg/mL) in which the N-terminal of KS-13 (SEQ ID NO: 1) is myristoylated and control peptide (NQVSIGCPCDGKK: SEQ ID NO: 22) (30 μg/mL) were added to a semisolid medium (Methocult M3434 produced by STEMCELL Technologies) containing cell stimulatory factors (50 ng/mL of rm SCF, 10 ng/mL of rm IL-3, 10 ng/mL of rh IL-6, and 3 U/mL of rh EPO) (rm: recombinant form; rh: recombinant human form) to culture mouse fetal liver hematopoietic stem cells (CD45(+)c— Kit(+)Sca-1(+)) (1,000 cells/dish) therein. Then, hematopoietic colony-forming cell assay was performed to evaluate the hematopoietic potential of the cells.

Regarding `CC[C@H](C)[C@H](NC(=O)[C@@H](NC(=O)[C@H](CS)NC(=O)[C@@H]1CCCN1C(=O)CNC(=O)[C@H](CC(=O)O)NC(=O)[C@H](CCCCN)NC(=O)[C@H](CCCCN)NC(=O)[C@H](CCC(N)=O)NC(=O)[C@@H](N)CS)C(C)C)C(=O)N[C@@H](CC(N)=O)C(=O)NCC(=O)N[C@@H](CO)C(=O)O` [KS-13, Cys Gln Lys Lys Asp Gly Pro Cys Val Ile Asn Gly Ser] (H-CQKKDGPCVINGS-OH), the viability at 264 h, 1 µg/mL in data set [1] (KS-13 1 μg/mL) came to 97.5%. Further, the viability at 264 h, 10 µg/mL in data set [1] (KS-13 10 μg/mL) was determined as 97.6%. For the same compound, the “induction of cell death” value in data set [2] was “does not induce cell death”.

Regarding “myristoylated KS-13: KS-13 (SEQ ID NO: 1) in which the N-terminal is myristoylated (Myristoyl-CQKKDGPCVINGS; cysteine pairing not given here; listed as Homo sapiens)”, the “colony formation versus control peptide” value in data set [3] (30 μg/mL, 12 days) is on record as “inhibited colony formation more than the control”. The compound further returned a number of colonies in data set [3] of 93.9.

As for “NQVSIGCPCDGKK (Control peptide) [reference compound]”, in data set [3], the number of colonies is 111.1.
